From US20230150978A1, “QUINAZOLINONE DERIVATIVES AND USES THEREOF FOR TREATING A CANCER” (ENYO PHARMA, priority 2020, published 2023)

How the values were obtained:
[1] = system: Calreticulin; assay: Calreticulin release (ER to plasma membrane translocation) screen, Nano-Glo HiBiT extracellular detection; type: cell-based; conditions: Homo sapiens, MDA-MB-231, MDA-MB-231 cells stably expressing Calreticulin-HiBiT; extracellular luminescence; read-out: CalR EC50
Description: (§1) Construction of pBiT3.1-Calreticulin Plasmid Calreticulin derived from pCMV6-AC plasmid (ref. SC320287, Origene) was amplified by PCR using the following set of primers: Seq ID No 3: forward, 5′-[…]-3′; Seq ID No 4: reverse, 5′-[…]-3′. The PCR fragment was subsequently digested by EcoRI and XhoI (R3101S and R0146S respectively, New England Biolabs) and inserted between the EcoRI and XhoI sites in the plasmid pBiT3.1-C(ref. N237A, Promega). The resulting plasmid (pBiT3.1-Calreticulin) was grown in NEB10-beta competent E. coli (ref. C3019I, New England Biolabs) and purified using the NucleoBond Xtra Midi Kit (ref. 740410, Macherey-Nagel).
Construction of Calreticulin Reporter Cell Line
(§2) pBiT3.1-Calreticulin was transfected in MDA-MB-231 cells (ref. ATCC HTB-2) using Lipofectamine 2000 reagent (ref. 11668, Invitrogen). Transfected cells were selected for blasticidin resistance (15 μg/ml, ref. Al 113903 Gibco) in medium containing DMEM 1× (ref. 1995065, Gibco) with 1% penicillin and streptomycin, and 10% fetal bovine serum.
Screen for Calreticulin-ER to Plasma Membrane Translocating Drugs
(§3) MDA-MB-231 cells stably expressing Calreticulin-HiBiT (10^4 cells/well) were seeded into white 96-well plates (ref.3917, Corning) and allowed to recover for 24h. […] Mitoxantrone dihydrochloride (ref. M6545, Sigma-Aldrich) was used as a positive control. Extracellular translocation of Calreticulin was measured using the Nano-Glo HiBiT extracellular detection system (ref. N2422, Promega). Nano-Glo HiBiT Extracellular Reagent was prepared in advance, added to the well and incubated 10 min.
Luminescence of the extracellular Calreticulin-HiBiT was quantified using the Spark 20M spectrofluorimeter (TECAN).

[2] = system: HMGB1; assay: HMGB1 release screen, Nano-Glo HiBiT extracellular detection; type: cell-based; conditions: Homo sapiens, MDA-MB-231, MDA-MB-231 cells stably expressing HMGB1-HiBiT; extracellular luminescence
Description: Construction of pBiT3.1-HMGB1 Plasmid
as §1, with “HMGB1” for “Construction of pBiT3.1-Calreticulin Plasmid Calreticulin”, “pCMV6-AC-GFP” for “pCMV6-AC”, “RG205918,” for “SC320287,”, “1:” for “3:”, “2:” for “4:”, “(pBiT3.1-HMGB1)” for “(pBiT3.1-Calreticulin)”
Construction of HMGB1 Reporter Cell Line
as §2, with “pBiT3.1-HMGB1” for “pBiT3.1-Calreticulin”
Screen for HMGB1-Releasing Drugs
as §3, with “HMGB1-HiBiT” for “Calreticulin-HiBiT”, “HMGB1” for “Calreticulin”, “min. Luminescence of the extracellular HMGB1-HiBiT was quantified using the Spark 20M spectrofluorimeter (TECAN)” for “min.”

| SMILES | EC50 [1] | EC50 [2] | melting point |
| --- | --- | --- | --- |
| CC1CN(Cc2nc3ccc(Cl)cc3c(=O)[nH]2)c2ccccc21 (stereo not drawn) [Ex. #37, 6-chloro-2-[(3-methylindolin-1-yl)methyl]-3H-quinazolin-4-one] | 1.16 µM | 3.16 µM | 200 to 223 °C |
| COc1ccc2nc(CN3CC(C)c4ccccc43)[nH]c(=O)c2c1 (stereo not drawn) [Ex. #3, 6-methoxy-2-[(3-methylindolin-1-yl)methyl]-3H-quinazolin-4-one] | 0.191 µM | 0.263 µM | 192 to 213 °C |
| COc1ccc2nc(CN3CC(C(C)C)c4ccccc43)[nH]c(=O)c2c1 (stereo not drawn) [Ex. #6, 2-[(3-isopropylindolin-1-yl)methyl]-6-methoxy-3H-quinazolin-4-one] | 0.254 µM | 0.217 µM | 192 to 208 °C |
| COc1cc2c(=O)[nH]c(CN3CCc4ccccc43)nc2cn1 [Ex. #78, 2-(indolin-1-ylmethyl)-6-methoxy-3H-pyrido[3,4-d]pyrimidin-4-one] | 2.45 µM | 3.25 µM | 215 to 230 °C |
| CN(C)c1cc2c(=O)[nH]c(CN3CCc4ccccc43)nc2cc1F [Ex. #80, 6-(dimethylamino)-7-fluoro-2-(indolin-1-ylmethyl)-3H-quinazolin-4-one] | 0.22 µM | 0.225 µM | 200 to 223 °C |
| COc1ccc2nc(CN3CCCc4cccc(OC)c43)[nH]c(=O)c2c1 [Ex. #13, 6-methoxy-2-[(8-methoxy-3,4-dihydro-2H-quinolin-1-yl)methyl]-3H-quinazolin-4-one] | 1.14 µM | 0.752 µM | 169 to 183 °C |
| COc1cc2c(=O)[nH]c(CN3CC(C)(C)c4ccccc43)nc2cc1F [Ex. #77, 2-[(3,3-dimethylindolin-1-yl)methyl]-7-fluoro-6-methoxy-3H-quinazolin-4-one] | 0.15 µM | 0.15 µM | 194 to 209 °C |
| COc1ccc2nc(CN3CCc4cccc(F)c43)[nH]c(=O)c2c1 [Ex. #8, 2-[(7-fluoroindolin-1-yl)methyl]-6-methoxy-3H-quinazolin-4-one] | 5.66 µM | 8.36 µM | 208 to 227 °C |
| COc1cccc2c1CCN(Cc1nc3ccc(Cl)cc3c(=O)[nH]1)C2 [Ex. #58, 6-chloro-2-[(5-methoxy-3,4-dihydro-1H-isoquinolin-2-yl)methyl]-3H-quinazolin-4-one] | 0.524 µM | 4.81 µM | 205 to 212 °C |
| COc1ccc2nc(CN3CCc4c(C#N)cccc4C3)[nH]c(=O)c2c1 [Ex. #16, 2-[(6-methoxy-4-oxo-3H-quinazolin-2-yl)methyl]-3,4-dihydro-1H-isoquinoline-5-carbonitrile] | 0.49 µM | 2.66 µM | 197 to 218 °C |
| COc1cccc2c1N(Cc1nc3ccc(Cl)cc3c(=O)[nH]1)CCC2 [Ex. #54, 6-chloro-2-[(8-methoxy-3,4-dihydro-2H-quinolin-1-yl)methyl]-3H-quinazolin-4-one] | 1.76 µM | 3.06 µM | 183 to 194 °C |
| CC(C)c1ccc2nc(CN3CCc4ccccc43)[nH]c(=O)c2c1 [Ex. #81, 2-(indolin-1-ylmethyl)-6-isopropyl-3H-quinazolin-4-one] | 0.08 µM | 0.41 µM | 168 to 185 °C |
| COc1ccc2c(c1)N(Cc1nc3ccc(Cl)cc3c(=O)[nH]1)CCC2 [Ex. #55, 6-chloro-2-[(7-methoxy-3,4-dihydro-2H-quinolin-1-yl)methyl]-3H-quinazolin-4-one] | 11.3 µM | 10.8 µM |  |
| CN(C)c1ccc2nc(CN3CC(C)(C)c4ccccc43)[nH]c(=O)c2c1 [Ex. #74, 6-(dimethylamino)-2-[(3,3-dimethylindolin-1-yl)methyl]-3H-quinazolin-4-one] | 0.2 µM | 0.21 µM |  |
| Cc1cccc2c1CCCN2Cc1nc2ccc(Cl)cc2c(=O)[nH]1 [Ex. #53, 6-chloro-2-[(5-methyl-3,4-dihydro-2H-quinolin-1-yl)methyl]-3H-quinazolin-4-one] | 0.73 µM | 2.51 µM |  |
| O=c1[nH]c(CN2CCc3ccccc32)nc2ccc(C(F)(F)F)cc12 [Ex. #85, 2-(indolin-1-ylmethyl)-6-(trifluoromethyl)-3H-quinazolin-4-one] | 1.96 µM | 3.56 µM |  |

Results, then the molecule that gave them:

| EC50 [1] | EC50 [2] | melting point | SMILES |
| --- | --- | --- | --- |
| 0.0988 µM | 0.14 µM | 194 to 211 °C | CN(C)c1cc2c(=O)[nH]c(CN3CC(C)(C)c4ccccc43)nc2cn1 [Ex. #92, 6-(dimethylamino)-2-[(3,3-dimethylindolin-1-yl)methyl]-3H-pyrido[3,4-d]pyrimidin-4-one] |
| 5.49 µM | 8.76 µM | 167 to 181 °C | CC(C)(C)OC(=O)NCCCCOc1ccc2nc(CN3CCc4ccccc43)[nH]c(=O)c2c1 [Ex. #90, tert-butyl N-[4-[[2-(indolin-1-ylmethyl)-4-oxo-3H-quinazolin-6-yl]oxy]butyl]carbamate] |
| 9.96 µM | 11.5 µM | 187 to 197 °C | CC1(C)CN(Cc2nc3ccc(C#N)cc3c(=O)[nH]2)c2ccccc21 [Ex. #95, 2-[(3,3-dimethylindolin-1-yl)methyl]-4-oxo-3H-quinazoline-6-carbonitrile] |
| 1.66 µM | 12.7 µM | 174 to 179 °C | COc1ccc2nc(CN3CCc4ccccc4C3)[nH]c(=O)c2c1 [Ex. #122, 2-(3,4-dihydro-1H-isoquinolin-2-ylmethyl)-6-methoxy-3H-quinazolin-4-one] |
| 9.76 µM | 15.9 µM | 196 to 206 °C | COc1ccc2nc(CN3CCc4c(cccc4C(F)(F)F)C3)[nH]c(=O)c2c1 [Ex. #125, 6-methoxy-2-[[5-(trifluoromethyl)-3,4-dihydro-1H-isoquinolin-2-yl]methyl]-3H-quinazolin-4-one] |
| 6.16 µM | 7.56 µM | 199 to 221 °C | CC1(C)CN(Cc2nc3cc4c(cc3c(=O)[nH]2)OCO4)c2ccccc21 [Ex. #119, 6-[(3,3-dimethylindolin-1-yl)methyl]-7H-[1,3]dioxolo[4,5-g]quinazolin-8-one] |
| 8.06 µM |  | 222 to 232 °C | COc1ccc2nc(CN3CCc4c(F)cccc43)[nH]c(=O)c2c1 [Ex. #126, 2-[(4-fluoroindolin-1-yl)methyl]-6-methoxy-3H-quinazolin-4-one] |
| 2.56 µM | 3.86 µM |  | COc1ccc2c(=O)[nH]c(CN3CCc4ccccc43)nc2c1 [Ex. #86, 2-(indolin-1-ylmethyl)-7-methoxy-3H-quinazolin-4-one] |
| 0.595 µM | 1.37 µM |  | O=c1[nH]c(CN2CCc3ccccc32)nc2ccc(N3CCCC3)cc12 [Ex. #102, 2-(indolin-1-ylmethyl)-6-pyrrolidin-1-yl-3H-quinazolin-4-one] |
| 8.11 µM | 10.1 µM |  | O=c1[nH]c(CN2CCc3ccccc32)nc2cc(C(F)(F)F)ccc12 [Ex. #91, 2-(indolin-1-ylmethyl)-7-(trifluoromethyl)-3H-quinazolin-4-one] |
| 2.16 µM | 3.96 µM |  | CC(C)Oc1ccc2nc(CN3CCc4ccccc43)[nH]c(=O)c2c1 [Ex. #87, 2-(indolin-1-ylmethyl)-6-isopropoxy-3H-quinazolin-4-one] |
